In PubChem BioAssay (NCI):
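Briefly, cells in 96-well plates were exposed to five compound concentrations for 48 h, and endpoints were estimated by linear interpolation. Here, GI50 denotes the concentration required for 50% inhibition of growth. The concentration for full growth arrest is given as TGI.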

Key:
Test in all cases: NCI-60 cell line screen, 48 h
[1] = test system: SW-620 colon
[2] = test system: MDA-MB-435
[3] = test system: NCI-H23 lung
[4] = test system: PC-3 prostate
[5] = test system: SNB-19 CNS
[6] = test system: SNB-75 CNS
[7] = test system: OVCAR-5 ovarian
[8] = test system: OVCAR-4 ovarian
[9] = test system: A498 renal
[10] = test system: UACC-62 melanoma

Compound | GI50 [1] [µM] | TGI [1] [µM] | GI50 [2] [µM] | TGI [2] [µM] | GI50 [3] [µM] | TGI [3] [µM] | GI50 [4] [µM] | TGI [4] [µM] | GI50 [5] [µM] | TGI [5] [µM] | GI50 [6] [µM] | TGI [6] [µM] | GI50 [7] [µM] | TGI [7] [µM] | GI50 [8] [µM] | TGI [8] [µM] | GI50 [9] [µM] | TGI [9] [µM] | GI50 [10] [µM] | TGI [10] [µM]
O=C(COc1cccc(/C=C2\CSc3ccc(Cl)cc3C2=O)c1)c1ccc(Cl)cc1 | 1.67 | 3.09 | 2.29 | 8.09 | 12.9 | 42.5 | 3.35 | 11.4 | 6.57 | 20.8 | 14 | 37.8 | 12.5 | 29.8 | 9.25 | 23.1 | 44.6 | > 100 | 9.04 | 22.5
O=C1CC(c2ccccc2)Cc2nc3ccc(Br)cc3cc21 (stereo not given) | 0.362 | > 100 | 0.0328 | 0.126 | 0.575 | > 100 | 0.296 | > 100 | 0.495 | > 100 | 0.187 | > 90.1 | 0.757 | > 100 | 6.93 | > 100 | 0.0377 | 0.487 | 0.26 | > 100
COc1cc([N+](=O)[O-])c(OC)cc1-c1nc2sc(C)cn2c1/C(N)=N/C(=N)N | 5.78 | > 100 | 16.1 | > 100 | 89.6 | > 100 | 45.9 | > 100 | 39.4 | > 100 | > 100 | > 100 | > 100 | > 100 | > 100 | > 100 | 27.3 | 69.1 | 23.8 | 52.4
C#Cc1cccc(Nc2ncnc3ccc(OCCCCNCCS(C)(=O)=O)cc23)c1 | 9.43 | > 25 | 5.37 | 12.5 | 16.7 | > 25 | 9.55 | > 25 | 15.2 | > 25 | 10.7 | > 25 | 4.93 | > 25 | 9.55 | > 25 | 3.18 | 9.75 | 4.82 | 9.1
COC1=C(C)C(=O)c2c(c(CCCl)c3n2CCC3OC(C)=O)C1=O (stereo not given) | 0.453 | 12.3 | 0.523 | 1.97 | 0.0586 | 0.992 | 0.749 | 14.3 | 0.272 | 18.2 | 0.141 | 0.376 | 0.325 | 9.32 | 7.18 | 38.6 | 0.0632 | 0.166 | 0.208 | 0.578
O=C(C=P(c1ccccc1)(c1ccccc1)c1ccccc1)CCl | 0.579 | 2.12 | 0.894 | 2.34 | 0.811 | 4.83 | 1.54 | 3.34 | 3.55 | 15.1 | 1.19 | 7.57 | 1.46 | 3.73 | 0.488 | 2.2 | 1.09 | 2.46 | 1.14 | 2.88
Cc1ccc(C=C2C(Cl)=C(Cl)C(Cl)=C2Cl)cc1 | 0.339 | 1.18 | 0.42 | 1.6 | 0.533 | 2.5 | 0.743 | 6.3 | 1.33 | 2.68 | 1.16 | 2.44 | 0.978 | 2.49 | 1 | 2.75 | 1.43 | 2.91 | 0.784 | 2.74
CN(C)CCCSc1ccccc1NC1=C(Cl)C(=O)C(Nc2ccccc2SCCCN(C)C)=C(Cl)C1=O | 2.17 | 4.38 | 2.06 | 4.52 | 1.75 | 3.74 | 1.68 | 3.84 | 3.42 | 11.4 | 11.1 | 23.2 | 1.78 | 3.29 | 1.29 | 2.56 | 8.36 | 20.6 | 1.81 | 3.51
COC(=O)[C@]12CC[C@@H](C)[C@H](C)[C@@H]1C1=CC[C@@H]3[C@@]4(C)C[C@@H](OC(=O)/C=C/c5ccccc5)[C@H](O)[C@@](C)(CO)[C@@H]4[C@H](O)C[C@@]3(C)[C@]1(C)CC2 | 1.93 | 4.2 | 2.44 | 6.47 | 2.8 | 10.2 | 2.55 | 8.93 | 3.51 | 16.6 | 2.08 | 12.9 | 2.17 | 6 | 3.23 | 13.4 | 1.07 | 4.83 | 2.83 | 11.4
COc1ccc(C2CC(c3ccc(Nc4ccnc5cc(Cl)ccc45)cc3)=NN2C=O)cc1 (stereo not given) | 35.8 | > 100 | 1.72 | 5.22 | 50.6 | > 100 | 9.43 | > 100 | 56.5 | > 100 | > 100 | > 100 | > 100 | > 100 | 13.4 | > 100 | > 100 | > 100 | 5.99 | 49.8
COc1ccc(C(=NN=C(N)N)c2ccc(OC)cc2)cc1 | 3.11 | 12.4 | 1.78 | 4.33 | 3.87 | 17.8 | 3.04 | 14.4 | 3.72 | 16.4 | 1.84 | 11.3 | 5.1 | 21.6 | 3.46 | 16.4 | 2.78 | 13.3 | 3.54 | 14.1
CCOC(=O)C1=C(C)NC(=O)NC1CN1C(=O)c2ccccc2C1=O (stereo not given) | > 100 | > 100 | > 100 | > 100 | > 100 | > 100 | > 100 | > 100 | > 100 | > 100 | > 100 | > 100 | > 100 | > 100 | > 100 | > 100 | > 100 | > 100 | > 100 | > 100
